25 compounds from US8536180B2, “Pyrimidine inhibitors of kinase activity” (AbbVie Inc., priority 2009, dated 2013) can be followed below.

Each structure is given as a SMILES string.

T1 sequence (P08069 954-1367): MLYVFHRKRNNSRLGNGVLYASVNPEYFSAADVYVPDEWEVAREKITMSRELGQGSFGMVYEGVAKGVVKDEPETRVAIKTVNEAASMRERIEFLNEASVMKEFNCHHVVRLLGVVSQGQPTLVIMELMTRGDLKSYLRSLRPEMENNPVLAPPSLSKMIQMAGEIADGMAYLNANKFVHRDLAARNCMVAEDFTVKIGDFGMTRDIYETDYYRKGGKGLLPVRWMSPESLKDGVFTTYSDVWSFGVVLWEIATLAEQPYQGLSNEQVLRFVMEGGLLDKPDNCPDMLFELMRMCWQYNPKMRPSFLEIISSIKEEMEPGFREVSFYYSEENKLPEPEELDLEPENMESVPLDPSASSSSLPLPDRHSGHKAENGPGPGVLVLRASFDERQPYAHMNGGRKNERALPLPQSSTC

This assay concerns the target T1, C-terminal GST-tagged, recombinant, human IGF-1R, amino acids 954-1367 (Homo sapiens, UniProt P08069).
T1 construct: human IGF-1R, amino acids 954-1367 expressed by baculovirus in Sf21 cells; GST (C); purchased Cell Signaling Technology; host or cells: baculovirus in Sf21 cells
The experiment in a line: IGF-1R homogenous time-resolved fluorescence (HTRF) in vitro kinase assay. Type of assay: biochemical. Particulars: IGF-1R kinase, ATP 50 μM final, biotinylated peptide substrate 0.5 μM, 60 minutes at room temperature. The method, then:
IGF-1R kinase activity was assayed by a homogenous time-resolved fluorescence (HTRF) in vitro kinase assay (Mathis, G., HTRF(R) Technology. J Biomol Screen, 1999. 4(6): p. 309-314). Specifically, 10 μL C-terminal GST-tagged, recombinant, human IGF-1R, amino acids 954-1367 expressed by baculovirus in Sf21 cells (Cell Signaling Technology) was mixed with 10 μL inhibitor (various concentrations, 2% final DMSO) and 10 μL of ATP (50 μM final concentration) in reaction buffer (50 mM HEPES, pH 7.5, 10 mM MgCl2, 2 mM MnCl2, 0.1% BSA and 1 mM DTT, 40 μL final volume). The reaction was initiated by addition of 10 μL of biotinylated peptide substrate (Biotin-Ahx-[…], 0.5 μM final concentration) in a black 384-well plate (Packard). After 60 minutes incubation at room temperature, the reaction was quenched by addition of 60 μL stop/revelation buffer to give 30 mM EDTA, 1 μg/mL streptavidin-APC (Prozyme), 50 ng/mL anti-phosphotyrosine mAb PT66-K Europium Cryptate, 30 mM HEPES, pH 7.5, 120 mM KF, 0.005% Tween-20, 0.05% BSA). The quenched reaction was allowed to stand at room temperature for 1 hour and then read in a time-resolved fluorescence detector (Envision, Perkin Elmer) at 615 nm and 665 nm simultaneously. The ratio between the signal of 615 nm and 665 nm was used in the calculation of the IC50.
Take `COc1cc(N2CCC(N3CCN(C)CC3)CC2)ccc1Nc1nccc(-c2c(-c3ccc4[nH]c(Cc5ccccc5)nc4c3)nc3ccccn23)n1` [Example 22, 4-[2-(2-benzyl-1H-benzimidazol-5-yl)imidazo[1,2-a]pyridin-3-yl]-N-{2-methoxy-4-[4-(4-methylpiperazin-1-yl)piperidin-1-yl]phenyl}pyrimidin-2-amine]: the IC50 is less than 10 nM. As for `c1ccc(Cc2nc3ccc(-c4nc5sccn5c4-c4ccnc(Nc5ccccc5)n4)cc3[nH]2)cc1` [Example 23, 4-[6-(2-benzyl-1H-benzimidazol-6-yl)imidazo[2,1-b][1,3]thiazol-5-yl]-N-phenylpyrimidin-2-amine], the IC50 lay within 51 to 100 nM. The value for `COc1ccccc1Nc1nccc(-c2c(-c3ccc4nc(Cc5ccccc5)[nH]c4c3)nc3sccn23)n1` [Example 24, 4-[6-(2-benzyl-1H-benzimidazol-6-yl)imidazo[2,1-b][1,3]thiazol-5-yl]-N-(2-methoxyphenyl)pyrimidin-2-amine] was 10 to 50 nM. The value for `Cc1cc(Nc2nccc(-c3c(-c4ccc5nc(Cc6ccccc6)[nH]c5c4)nc4ccccn34)n2)n[nH]1` [Example 25, 4-[2-(2-benzyl-1H-benzimidazol-6-yl)imidazo[1,2-a]pyridin-3-yl]-N-(5-methyl-1H-pyrazol-3-yl)pyrimidin-2-amine] was 51 to 100 nM.

For the compound `c1ccc(Cc2nc3ccc(-c4nc5ccccn5c4-c4ccnc(Nc5cc(C6CC6)n[nH]5)n4)cc3[nH]2)cc1` [Example 26, 4-[2-(2-benzyl-1H-benzimidazol-6-yl)imidazo[1,2-a]pyridin-3-yl]-N-(3-cyclopropyl-1H-pyrazol-5-yl)pyrimidin-2-amine], the IC50 fell in the range of 10 to 50 nM. The result for `COc1cc(N2CCOCC2)ccc1Nc1nccc(-c2c(-c3ccc4nc(-c5ccccc5)[nH]c4c3)nc3ccccn23)n1` [Example 27, N-(2-methoxy-4-morpholin-4-ylphenyl)-4-[2-(2-phenyl-1H-benzimidazol-6-yl)imidazo[1,2-a]pyridin-3-yl]pyrimidin-2-amine] reads 10 to 50 nM; that for `O=c1[nH]cccc1Nc1nccc(-c2c(-c3ccc4[nH]c(Cc5ccccc5)nc4c3)nc3ccccn23)n1` [Example 29, 3-({4-[2-(2-benzyl-1H-benzimidazol-5-yl)imidazo[1,2-a]pyridin-3-yl]pyrimidin-2-yl}amino)pyridin-2(1H)-one], 101 to 500 nM. For the compound `COc1cc(N2CCC(N(C)C)CC2)ccc1Nc1nccc(-c2c(-c3ccc4nc(Cc5ccccc5)[nH]c4c3)nc3sccn23)n1` [Example 30, 4-[6-(2-benzyl-1H-benzimidazol-6-yl)imidazo[2,1-b][1,3]thiazol-5-yl]-N-{4-[4-(dimethylamino)piperidin-1-yl]-2-methoxyphenyl}pyrimidin-2-amine], the IC50 is less than 10 nM. The result for `COc1cc(N(C)C)ccc1Nc1nccc(-c2c(-c3ccc4nc(Cc5ccccc5)[nH]c4c3)nc3sccn23)n1` [Example 31, N^1-{4-[6-(2-benzyl-1H-benzimidazol-6-yl)imidazo[2,1-b][1,3]thiazol-5-yl]pyrimidin-2-yl}-2-methoxy-N^4,N^4-dimethylbenzene-1,4-diamine] reads 10 to 50 nM. The result for `COc1cc(Cl)ccc1Nc1nccc(-c2c(-c3ccc4nc(Cc5ccccc5)[nH]c4c3)nc3ccccn23)n1` [Example 32, 4-[2-(2-benzyl-1H-benzimidazol-6-yl)imidazo[1,2-a]pyridin-3-yl]-N-(4-chloro-2-methoxyphenyl)pyrimidin-2-amine] reads 101 to 500 nM. The result for `COc1cc(N(C)C)ccc1Nc1nccc(-c2c(-c3ccc4nc(Cc5ccccc5Cl)[nH]c4c3)nc3sccn23)n1` [Example 33, N^1-(4-{6-[2-(2-chlorobenzyl)-1H-benzimidazol-6-yl]imidazo[2,1-b][1,3]thiazol-5-yl}pyrimidin-2-yl)-2-methoxy-N^4,N^4-dimethylbenzene-1,4-diamine] reads 10 to 50 nM. Regarding `COc1ccccc1Cc1nc2ccc(-c3nc4sccn4c3-c3ccnc(Nc4ccc(N(C)C)cc4OC)n3)cc2[nH]1` [Example 34, 2-methoxy-N^1-(4-{6-[2-(2-methoxybenzyl)-1H-benzimidazol-6-yl]imidazo[2,1-b][1,3]thiazol-5-yl}pyrimidin-2-yl)-N^4,N^4-dimethylbenzene-1,4-diamine], the IC50 was in the range of 10 to 50 nM.

With `OCCn1cc(Nc2nccc(-c3c(-c4ccc5[nH]c(-c6ccccc6)nc5c4)nc4ccccn34)n2)cn1` [Example 36, 2-[4-({4-[2(2-phenyl-1H-benzimidazol-5-yl)imidazo[1,2-a]pyridin-3-yl]pyrimidin-2-yl}amino)-1H-pyrazol-1-yl]ethanol], the IC50 was in the range of 10 to 50 nM.

As for `OCCn1cc(Nc2nccc(-c3c(-c4ccc5[nH]c(Cc6ccccc6)nc5c4)nc4ccccn34)n2)cn1` [Example 37, 2-[4-({4-[2(2-benzyl-1H-benzimidazol-5-yl)imidazo[1,2-a]pyridin-3-yl]pyrimidin-2-yl}amino)-1H-pyrazol-1-yl]ethanol], the IC50 lay within 10 to 50 nM. The value for `Fc1ccc(Nc2nccc(-c3c(-c4ccc5nc(-c6ccccc6)[nH]c5c4)nc4ccccn34)n2)cc1` [Example 38, N-(4-fluorophenyl)-4-[2-(2-phenyl-1H-benzimidazol-6-yl)imidazo[1,2-a]pyridin-3-yl]pyrimidin-2-amine] was 101 to 500 nM. The value for `Fc1ccc(Nc2nccc(-c3c(-c4ccc5[nH]c(Cc6ccccc6)nc5c4)nc4ccccn34)n2)cc1` [Example 39, 4-[2-(2-benzyl-1H-benzimidazol-5-yl)imidazo[1,2-a]pyridin-3-yl]-N-(4-fluorophenyl)pyrimidin-2-amine] was 51 to 100 nM. The value for `Fc1ccc(Nc2nccc(-c3c(-c4ccc5nc(-c6ccccc6)[nH]c5c4)nc4ccccn34)n2)c(F)c1` [Example 40, N-(2,4-difluorophenyl)-4-[2-(2-phenyl-1H-benzimidazol-6-yl)imidazo[1,2-a]pyridin-3-yl]pyrimidin-2-amine] was greater than 500 nM; that for `Fc1ccc(Nc2nccc(-c3c(-c4ccc5[nH]c(Cc6ccccc6)nc5c4)nc4ccccn34)n2)c(F)c1` [Example 41, 4-[2-(2-benzyl-1H-benzimidazol-5-yl)imidazo[1,2-a]pyridin-3-yl]-N-(2,4-difluorophenyl)pyrimidin-2-amine] was 101 to 500 nM. With `FC(F)(F)c1ccccc1Cc1nc2ccc(-c3nc4sccn4c3-c3ccnc(Nc4ccccc4CN4CCCC4)n3)cc2[nH]1` [Example 42, N-[2-(pyrrolidin-1-ylmethyl)phenyl]-4-(6-{2-[2-(trifluoromethyl)benzyl]-1H-benzimidazol-6-yl}imidazo[2,1-b][1,3]thiazol-5-yl)pyrimidin-2-amine], the IC50 is greater than 500 nM. The result for `COc1ccc(S(C)(=O)=O)cc1Nc1nccc(-c2c(-c3ccc4nc(Cc5ccccc5)[nH]c4c3)nc3ccccn23)n1` [Example 43, 4-[2-(2-benzyl-1H-benzimidazol-6-yl)imidazo[1,2-a]pyridin-3-yl]-N-[2-methoxy-5-(methylsulfonyl)phenyl]pyrimidin-2-amine] reads 10 to 50 nM; that for `Cn1cc(Nc2nccc(-c3c(-c4ccc5[nH]c(-c6ccccc6)nc5c4)nc4ccccn34)n2)cn1` [Example 44, N-(1-methyl-1H-pyrazol-4-yl)-4-[2-(2-phenyl-1H-benzimidazol-5-yl)imidazo[1,2-a]pyridin-3-yl]pyrimidin-2-amine], greater than 500 nM. The value for `COc1ccc(C(F)(F)F)cc1Nc1nccc(-c2c(-c3ccc4nc(Cc5ccccc5)[nH]c4c3)nc3ccccn23)n1` [Example 45, 4-[2-(2-benzyl-1H-benzimidazol-6-yl)imidazo[1,2-a]pyridin-3-yl]-N-[2-methoxy-5-(trifluoromethyl)phenyl]pyrimidin-2-amine] was 101 to 500 nM. On to `CN(C)Cc1ccc(Nc2nccc(-c3c(-c4ccc5nc(Cc6ccccc6C(F)(F)F)[nH]c5c4)nc4sccn34)n2)cc1` [Example 46, N-{4-[(dimethylamino)methyl]phenyl}-4-(6-{2-[2-(trifluoromethyl)benzyl]-1H-benzimidazol-6-yl}imidazo[2,1-b][1,3]thiazol-5-yl)pyrimidin-2-amine], for which the IC50 lay in the range of 10 to 50 nM. As for `COc1cc(NCC(C)(C)O)ccc1Nc1nccc(-c2c(-c3ccc4[nH]c(Cc5ccccc5)nc4c3)nc3ccccn23)n1` [Example 47, 1-{[4-({4-[2-(2-benzyl-1H-benzimidazol-5-yl)imidazo[1,2-a]pyridin-3-yl]pyrimidin-2-yl}amino)-3-methoxyphenyl]amino}-2-methylpropan-2-ol], the IC50 lay within 10 to 50 nM. Consider `COc1cc(N(C)CCO)ccc1Nc1nccc(-c2c(-c3ccc4nc(Cc5ccccc5)[nH]c4c3)nc3ccccn23)n1` [Example 48, 2-[[4-({4-[2-(2-benzyl-1H-benzimidazol-6-yl)imidazo[1,2-a]pyridin-3-yl]pyrimidin-2-yl}amino)-3-methoxyphenyl](methyl)amino]ethanol], for which the IC50 is 10 to 50 nM.
